From patent US8552064B2, “Suramin and derivatives thereof as topical microbicide and contraceptive” (Eastern Virginia Medical School, priority 2005, dated 2013)

How the values were obtained:
[1] = test system: sperm penetration in cervical mucus; test: Modified One End Test (MOET), sperm penetration in bovine cervical mucus; format: cell-based
Source text: Bovine cervical mucus was obtained from Humagen (Charlottesville, Va.) in the form of prepackaged flat capillary tubes (Penetrak®), kept frozen and thawed right prior to the experiment. The Modified One End Test (MOET) [(described in Doncel G. F., in “Barrier Contraceptives”, Wiley-Liss, Mauck C. K. et al. eds., pp. 147-162 (1994)] was used to determine the effect of compounds, such as suramin sodium described herein, on sperm penetration in cervical mucus. Each of the test compositions containing the compound to be tested were diluted in a saline solution, i.e., at 9 grams of NaCl per liter of water. Tubes of cervical mucus were broken open. The open end was placed in a container containing the test compound in saline. The test compound was allowed to diffuse for 30 minutes through the tube. A semen sample, obtained from normal healthy donors, was then diluted with a buffer solution to 60 million motile sperm per milliliter and mixed with the test compound sample (i.e., suramin sodium). The tube containing the test compound sample was then re-inserted into the container containing the mixed solution and stored in an incubator at 37° C. in an atmosphere of 5 percent carbon dioxide in air for 60 minutes. The container and tube were then removed from the incubator and the tube was visually analyzed under a microscope for the migration of motile vanguard sperm through the tube. The results are expressed as percentage of migration as compared to control samples. In the control samples, the tubes were incubated with saline containing no compound. […]

sperm = test: Sperm progressive motility dose-response and time studies, CASA; format: cell-based, human; settings: 1-10,000 μg/mL or 5-0.07 mM

Molecule	MOET % CTL ([1]; 30 ug/ml) [% CTL]	blocking of sperm penetration ([1]; 300 μg/mL (0.03%))	MOET % CTL ([1]; 300 ug/ml) [% CTL]	sperm progressive motility and membrane integrity vs solvent control (sperm)	MOET % CTL ([1]; 6.25 mg/ml) [% CTL]	MOET % CTL ([1]; 12.5 mg/ml) [% CTL]	MOET % CTL ([1]; 25 mg/ml) [% CTL]	inhibition of sperm penetration in MOET ([1]; 50 mg/mL (5%))	MOET % CTL ([1]; 50 mg/ml) [% CTL]
CCCCCCCCCc1ccc(OCCOCCOCCOCCOCCOCCOCCOCCOCCO)cc1 [N-9, α-(4-Nonylphenyl)-ω-hydroxynona(oxyethylene)]	48.6 ± 6.9	completely blocked sperm penetration	0.7 ± 0.5	displayed its known sperm-immobilizing effects					
Dextran Sulfate					93.7 ± 1.7	82.4 ± 5.2	86.8 ± 4.4	more inhibition than suramin sodium	56.6 ± 8.9
